{"source": "patent EP2878677A1", "about": "“Activators of protein phosphatase 5” (Deutsches Zentrum für Neurodegenerative Erkrankungen e.V. …, priority 2013, dated 2015)", "target": "T1, PP5 (Rattus norvegicus, UniProt P53042)", "T1 construct": "The full-length PP5 and its deletion variants were purified and the activity was determined; made in house; host or cells: E. coli BL21-CodonPlus (DE3)-RIL", "T1 sequence (P53042 1-499)": "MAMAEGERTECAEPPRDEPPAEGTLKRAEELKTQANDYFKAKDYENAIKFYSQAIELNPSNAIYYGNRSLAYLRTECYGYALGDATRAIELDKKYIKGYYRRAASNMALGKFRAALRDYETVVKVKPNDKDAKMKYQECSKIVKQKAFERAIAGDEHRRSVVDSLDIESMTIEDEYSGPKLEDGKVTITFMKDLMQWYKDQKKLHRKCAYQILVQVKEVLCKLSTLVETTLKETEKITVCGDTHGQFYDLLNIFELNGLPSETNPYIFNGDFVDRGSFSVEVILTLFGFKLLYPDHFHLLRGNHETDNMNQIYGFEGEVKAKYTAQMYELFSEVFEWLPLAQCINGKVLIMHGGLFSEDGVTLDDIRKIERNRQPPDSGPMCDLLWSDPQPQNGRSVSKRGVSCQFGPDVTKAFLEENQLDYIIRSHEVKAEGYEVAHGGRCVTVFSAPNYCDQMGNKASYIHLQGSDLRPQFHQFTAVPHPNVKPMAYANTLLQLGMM", "assay": "pNPP-based phosphatase assay with full-length mammalian PP5", "assay_type": "biochemical", "method": "Cloning and purification of PPH-5, Hsp90/DAF-21, CDC-37, YFP-Hsp90/DAF-21 were performed as described before (Gaiser et al., 2009; Gaiser et al., 2011; Gaiser et al., 2010). The purified human phosphatases PP1, PP2A and PP2B/PP3 were purified as described (Baumgrass et al., 2001; Mondragon et al., 1997; Tung et al., 1985). The expression clones of mammalian PP5, PP5-ΔN165 (166-499) and PP5-ΔC8 (1-491) were generated by PCR from plasmid-DNA containing full-length PP5 from Rattus norvegicus. PCR-products were inserted into the pET28b expression plasmid (Merck, Darmstadt, Germany) and verified by DNA sequencing (GATC Biotech, Konstanz, Germany). Proteins were expressed in BL21-CodonPlus (DE3)-RIL bacteria (Stratagene, LaJolla, USA). Bacterial cultures were grown to an OD600 of 0.8 and induced with 1 mM IPTG. Cells were disrupted using a cell disruption machine (IUL Instruments, Freiburg, Germany) and the lysate was loaded onto a HisTrap FF column (GE Healthcare, Freiburg, Germany). Protein was eluted in a buffer containing 400 mM imidazole. Eluted protein was dialyzed and applied to a ResourceQ anion exchange column (GE Healthcare, Freiburg, Germany). Finally, proteins were subjected to size exclusion chromatography on Superdex 200 PrepGrade gel filtration columns (GE Healthcare, Freiburg, Germany). Protein purity was assessed by SDS-PAGE and the molecular mass was determined by a MALDI-TOF/TOF mass spectrometer (Bruker, Bremen, Germany). Proteins were frozen in liquid nitrogen in 40 mM HEPES/KOH, pH 7.5, 20 mM KCl, 1 mM DTT and stored at -80 °C.\nPhosphatase activity was followed by the conversion of para-nitrophenyl phosphate (pNPP) to para-nitophenole and absorption of the product at 410 nm (ε: 15100 cm^-1 M^-1) in a Varian Cary 100 spectrophotometer (Agilent Technologies, Boeblingen, Germany). The reaction was measured in 40 mM HEPES/KOH, 20 mM KCl, 5 mM MnCl2, 1 mM DTT, pH 7.5 and 60 mM pNPP at 20 °C if not indicated otherwise. Phosphatase concentration ranged from 50 to 500 nM in the assay. If indicated, Hsp90/DAF-21 peptide was supplemented in the assay at a concentration of 60 µM.\nFor characterization of the binding site of the P5SAs, deletion constructs of rat PP5 were generated. […] The full-length PP5 and its deletion variants were purified and the activity was determined in the absence and presence of 10 µM and 100 µM (45 µM in case of P5SA-5) of the substances, respectively (Figure 3A-C)."}
{"compound": "COc1ccc(-c2nc(Cc3ccc(Cl)cc3)no2)cc1OC", "note": "[P5SA-2]", "values": [{"measurement": "fold activation", "setting": "at 714 µM", "value": 13.7, "unit": "fold"}]}
{"compound": "CN1CCc2c(sc(-n3cccc3)c2CNC(=O)NC23CC4CC(CC(C4)C2)C3)C1", "note": "[P5SA-3]", "values": [{"measurement": "fold activation", "setting": "at 714 µM", "value": 7.0, "unit": "fold"}]}
{"compound": "FC(F)(F)c1c2c(nc3c(-c4ccc(Cl)cc4)cnn13)CCC2", "note": "[P5SA-1]", "values": [{"measurement": "fold activation", "setting": "at 143 µM", "value": 2.7, "unit": "fold"}]}
{"compound": "CNC(=O)c1c(NC(=O)COCC(=O)Nc2sc3c(c2C(=O)NC)CCC3)sc2c1CCC2", "note": "[P5SA-5]", "values": [{"measurement": "fold activation", "setting": "at 45 µM", "value": 22.1, "unit": "fold"}, {"measurement": "Kd", "setting": "rat PP5, read-out: binding constant (affinity towards the mammalian protein)", "value": "10 ± 5", "unit": "µM"}]}
{"compound": "O=c1cc2nc(-c3ccc(F)cc3)nc(SCc3ccc(Br)cc3)n2[nH]1", "note": "[P5SA-4]", "values": [{"measurement": "fold activation", "setting": "at 143 µM", "value": 16.4, "unit": "fold"}]}
